Measured values from ChEMBL document CHEMBL1201862, “PubChem BioAssay data set” (2004).
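Briefly, cells in 96-well plates were exposed to five compound concentrations for 48 h, and endpoints were estimated by linear interpolation. The concentration for 50% growth inhibition is given as GI50.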 Calls of active or inactive are those of the source. Cut-off read from the data, not from the text of the source: active = GI50 up to about 1.1 µM and inactive = higher.

Experiments:
Test in all cases: NCI-60 cell line screen, 48 h
SF-295 = system: SF-295
U-251 = system: U-251
UACC-257 = system: UACC-257
HOP-92 = system: HOP-92
DU-145 = system: DU-145
OVCAR-4 = system: OVCAR-4
RPMI-8226 = system: RPMI-8226
SW-620 = system: SW-620
SR = system: SR
SK-MEL-5 = system: SK-MEL-5
SNB-19 = system: SNB-19
Malme-3M = system: Malme-3M
A549 = system: A549
CCRF-CEM = system: CCRF-CEM
SF-539 = system: SF-539
NCI-H460 = system: NCI-H460
MDA-N = system: MDA-N
OVCAR-8 = system: OVCAR-8
KM12 = system: KM12
M14 = system: M14

Structure (SMILES)	GI50 (SF-295)	GI50 (U-251)	GI50 (UACC-257)	GI50 (HOP-92)	GI50 (DU-145)	GI50 (OVCAR-4)	GI50 (RPMI-8226)	GI50 (SW-620)	GI50 (SR)	GI50 (SK-MEL-5)	GI50 (SNB-19)	GI50 (Malme-3M)	GI50 (A549)	GI50 (CCRF-CEM)	GI50 (SF-539)	GI50 (NCI-H460)	GI50 (MDA-N)	GI50 (OVCAR-8)	GI50 (KM12)	GI50 (M14)
O=C1N/C(=N\N=C\c2ccccc2)C2(CCCCC2)O1	55.1 µM (inactive)	77.8 µM (inactive)	> 100 µM (inactive)	> 100 µM (inactive)	> 100 µM (inactive)	> 100 µM (inactive)	53.5 µM (inactive)	> 100 µM (inactive)	16.3 µM (inactive)	55.8 µM (inactive)	> 100 µM (inactive)	> 100 µM (inactive)	54.5 µM (inactive)	17.8 µM (inactive)	> 100 µM (inactive)	45 µM (inactive)	> 100 µM (inactive)	99.5 µM (inactive)	> 100 µM (inactive)	> 100 µM (inactive)
COC(=O)/C=C1\C(=O)N(C(C)=O)c2ccc(Br)cc21	16.9 µM (inactive)	8.05 µM (inactive)	10.7 µM (inactive)	13.6 µM (inactive)	12.8 µM (inactive)	13.2 µM (inactive)	2.66 µM (inactive)	6.03 µM (inactive)	2.8 µM (inactive)	9.68 µM (inactive)	14.3 µM (inactive)	14.1 µM (inactive)	17.5 µM (inactive)	1.47 µM (inactive)	4.67 µM (inactive)	14.6 µM (inactive)	11 µM (inactive)	8.43 µM (inactive)	14.3 µM (inactive)	10.4 µM (inactive)
Cc1ccc([N+](=O)[O-])cc1S(=O)(=O)Nc1ccc(C2=NN(S(=O)(=O)c3cc([N+](=O)[O-])ccc3C)C(c3ccco3)C2)cc1 (stereo not given)	32.8 µM (inactive)	–	11.1 µM (inactive)	16.7 µM (inactive)	45 µM (inactive)	74.8 µM (inactive)	25.8 µM (inactive)	> 100 µM (inactive)	33.5 µM (inactive)	30.3 µM (inactive)	46.1 µM (inactive)	47.2 µM (inactive)	–	27.6 µM (inactive)	53 µM (inactive)	–	43.9 µM (inactive)	44.5 µM (inactive)	39.4 µM (inactive)	42 µM (inactive)
Cn1cnc([N+](=O)[O-])c1Sc1nnc(-c2cccnc2)n1C	> 100 µM (inactive)	43.6 µM (inactive)	13.9 µM (inactive)	14.5 µM (inactive)	36.4 µM (inactive)	22.2 µM (inactive)	18.1 µM (inactive)	14.7 µM (inactive)	15.3 µM (inactive)	16.9 µM (inactive)	> 100 µM (inactive)	15.5 µM (inactive)	84.5 µM (inactive)	15.5 µM (inactive)	22.2 µM (inactive)	> 85.1 µM (inactive)	19.5 µM (inactive)	21.3 µM (inactive)	> 82 µM (inactive)	16.8 µM (inactive)
O=C1C([N-]S(=O)(=O)c2ccccc2)=C([n+]2ccc(Cc3ccccc3)cc2)C(=O)c2ccccc21	1.79 µM (inactive)	1.85 µM (inactive)	1.22 µM (inactive)	2.72 µM (inactive)	1.53 µM (inactive)	1.56 µM (inactive)	1.65 µM (inactive)	0.641 µM (active)	2.59 µM (inactive)	0.145 µM (active)	1.71 µM (inactive)	0.376 µM (active)	1.92 µM (inactive)	29.7 µM (inactive)	1.79 µM (inactive)	0.535 µM (active)	0.191 µM (active)	2.04 µM (inactive)	1.89 µM (inactive)	1.32 µM (inactive)
CNC(=S)N/N=C(\C)c1ccc(OC)cc1O	> 100 µM (inactive)	> 73.5 µM (inactive)	> 100 µM (inactive)	> 100 µM (inactive)	> 100 µM (inactive)	28.1 µM (inactive)	> 32 µM (inactive)	> 100 µM (inactive)	29.3 µM (inactive)	7.45 µM (inactive)	> 100 µM (inactive)	> 100 µM (inactive)	> 100 µM (inactive)	0.865 µM (active)	> 100 µM (inactive)	> 100 µM (inactive)	> 100 µM (inactive)	> 100 µM (inactive)	> 100 µM (inactive)	> 100 µM (inactive)
Cn1c(CCC2(C)Cc3ccccc3C(=O)O2)cc2ccccc2c1=O (stereo not given)	> 100 µM (inactive)	45.5 µM (inactive)	–	57.5 µM (inactive)	23.7 µM (inactive)	36 µM (inactive)	17.3 µM (inactive)	–	34.4 µM (inactive)	17.2 µM (inactive)	55.6 µM (inactive)	35.2 µM (inactive)	31.2 µM (inactive)	12.7 µM (inactive)	43.1 µM (inactive)	24.8 µM (inactive)	22.6 µM (inactive)	> 100 µM (inactive)	4.66 µM (inactive)	16.4 µM (inactive)
